19 molecules from patent publication US20210070748A1, “INHIBITORS OF BRUTONS TYROSINE KINASE” (Pharmacyclics LLC, priority 2015, published 2021) can be followed below.

Holding throughout (type): biochemical
The target in one test is T1, ITK (Homo sapiens, UniProt Q08881).
T1 sequence (Q08881 1-620): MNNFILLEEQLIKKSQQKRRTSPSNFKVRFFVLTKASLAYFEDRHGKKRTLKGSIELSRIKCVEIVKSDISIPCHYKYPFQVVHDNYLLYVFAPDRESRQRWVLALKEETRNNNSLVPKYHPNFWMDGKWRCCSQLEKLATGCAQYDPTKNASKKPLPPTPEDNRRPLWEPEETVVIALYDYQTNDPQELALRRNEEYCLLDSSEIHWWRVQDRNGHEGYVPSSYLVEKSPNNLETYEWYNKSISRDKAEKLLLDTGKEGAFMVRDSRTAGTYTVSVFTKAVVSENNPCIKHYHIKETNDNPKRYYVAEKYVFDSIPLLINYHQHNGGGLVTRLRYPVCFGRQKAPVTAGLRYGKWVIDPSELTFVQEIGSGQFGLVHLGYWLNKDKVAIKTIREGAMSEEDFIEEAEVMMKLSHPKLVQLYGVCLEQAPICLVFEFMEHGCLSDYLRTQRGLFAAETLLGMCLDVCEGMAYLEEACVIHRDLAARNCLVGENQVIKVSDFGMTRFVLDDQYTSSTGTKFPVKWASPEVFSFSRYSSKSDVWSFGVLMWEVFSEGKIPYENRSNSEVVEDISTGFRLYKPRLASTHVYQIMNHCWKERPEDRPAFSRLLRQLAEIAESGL
Briefly: Inhibition of a panel of kinases, in vitro HotSpot kinase assay: ITK. Here is the method:
The degree of inhibition of a panel of kinases is determined using the in vitro HotSpot kinase assay (purified enzymes, ^33P-ATP, an appropriate substrate and 1 μM ATP).

In another test the target is LCK (Homo sapiens, UniProt P06239). Briefly: Inhibition of a panel of kinases, in vitro HotSpot kinase assay: LCK. As to conditions: read-out: IC50 LCK.
Chain of LCK (P06239 whole entry): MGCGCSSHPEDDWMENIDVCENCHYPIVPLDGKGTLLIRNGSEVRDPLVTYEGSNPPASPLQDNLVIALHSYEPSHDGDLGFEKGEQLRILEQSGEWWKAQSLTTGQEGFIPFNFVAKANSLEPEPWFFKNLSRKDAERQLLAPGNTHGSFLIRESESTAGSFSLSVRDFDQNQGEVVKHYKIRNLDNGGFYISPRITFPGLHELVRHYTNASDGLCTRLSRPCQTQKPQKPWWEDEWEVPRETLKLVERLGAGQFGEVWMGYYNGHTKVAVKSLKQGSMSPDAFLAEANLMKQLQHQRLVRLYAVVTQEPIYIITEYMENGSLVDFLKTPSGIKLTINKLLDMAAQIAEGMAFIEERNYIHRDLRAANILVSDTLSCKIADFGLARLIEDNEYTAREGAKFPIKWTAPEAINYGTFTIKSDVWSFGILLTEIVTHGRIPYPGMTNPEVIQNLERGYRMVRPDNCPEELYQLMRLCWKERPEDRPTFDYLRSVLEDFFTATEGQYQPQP
Another test deals with T2, BTK-WT (Homo sapiens, UniProt Q06187).
T2 construct: purified from insect cells as a full-length construct containing an N-terminal 6X-His tag; His6 (N); made in house; host or cells: insect cells (baculovirus Sf21 in Method B)
T2 sequence (Q06187 whole entry): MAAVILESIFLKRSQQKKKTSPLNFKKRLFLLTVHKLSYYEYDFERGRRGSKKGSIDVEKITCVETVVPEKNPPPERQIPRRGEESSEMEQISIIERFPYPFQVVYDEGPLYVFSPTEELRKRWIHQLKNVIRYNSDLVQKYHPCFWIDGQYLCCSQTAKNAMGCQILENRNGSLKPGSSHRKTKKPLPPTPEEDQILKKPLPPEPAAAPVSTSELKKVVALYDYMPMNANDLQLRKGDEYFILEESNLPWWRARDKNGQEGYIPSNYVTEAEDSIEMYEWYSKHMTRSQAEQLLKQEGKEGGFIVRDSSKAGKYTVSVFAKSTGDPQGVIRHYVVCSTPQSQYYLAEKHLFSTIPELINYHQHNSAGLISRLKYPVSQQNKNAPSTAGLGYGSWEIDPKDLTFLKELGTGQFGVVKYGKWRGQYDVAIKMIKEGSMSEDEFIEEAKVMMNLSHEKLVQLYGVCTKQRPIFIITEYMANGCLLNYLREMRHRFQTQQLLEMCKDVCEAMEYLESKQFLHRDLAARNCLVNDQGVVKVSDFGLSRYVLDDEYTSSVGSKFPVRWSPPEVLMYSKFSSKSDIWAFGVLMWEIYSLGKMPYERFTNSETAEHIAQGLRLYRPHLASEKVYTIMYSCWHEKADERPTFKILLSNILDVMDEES
In words: Btk in vitro inhibitory activity (one of Method A TR-FRET, Method B electrophoretic mobility shift, Method C radiometric filter binding). As to conditions: read-out: IC50 BTK-WT. A general note: Mobility shift assays separate free from complexed probe on a gel.

Setting [1] is: Table 13, A compounds, 1 μM ATP.

Like-named read-outs stand apart in the source and are kept apart here. Bounds are passed on as bounds.

Consider `C=CC(=O)N1CCC[C@@H](Nc2nnc(C(N)=O)c(Nc3ccc(Cl)cc3)n2)[C@H]1C` [Example E-7, 3-(((2R,3R)-1-acryloyl-2-methylpiperidin-3-yl)amino)-5-((4-chlorophenyl)amino)-1,2,4-triazine-6-carboxamide], for which the half-inhibitory concentration (IC50) (as a rule, the concentration that gives 50% inhibition) at ITK (E compounds, Table 17) is not above 10 nM; at LCK (E compounds, Table 17), less than 10 nM; at BTK-WT (E compounds, Table 17) it was not above 10 nM.

Consider `C[C@@H]1[C@H](NC(=O)c2ccc(C(=O)N(C)C)cc2)CCCN1c1cnc(C(N)=O)c(Nc2cnn(C)c2)n1` [Example E-138, N1-((2R,3R)-1-(5-carbamoyl-6-((1-methyl-1H-pyrazol-4-yl)amino)pyrazin-2-yl)-2-methylpiperidin-3-yl)-N4,N4-dimethylterephthalamide], for which the IC50 was 100 to 1000 nM on ITK (E compounds, Table 17); 100 to 1000 nM on LCK (E compounds, Table 17); not above 10 nM on BTK-WT (E compounds, Table 17).

As for `C[C@@H]1[C@H](NC(=O)c2ccc(C3CC3)cc2)CCCN1c1cnc(C(N)=O)c(Nc2cnn(C3CCN(C)CC3)c2)n1` [Example A-173], the IC50 on ITK (setting [1]) is 100 to 1000 nM; on LCK (setting [1]), 10 to 100 nM; at BTK-WT (Table 13, A compounds) it was not above 10 nM.

As for `Cn1cc(Nc2nc(N3C[C@H](NC(=O)c4ccc(C5CC5)cc4)CC(F)(F)C3)cnc2C(N)=O)cn1` [Example A-188, (R)-5-(5-(4-cyclopropylbenzamido)-3,3-difluoropiperidin-1-yl)-3-(1-methyl-1H-pyrazol-4-ylamino)pyrazine-2-carboxamide], the IC50 was 1000 to 10000 nM on ITK (setting [1]); 100 to 1000 nM at LCK (setting [1]); not above 10 nM on BTK-WT (Table 13, A compounds).

For `C[C@@H]1[C@H](NC(=O)c2ccc(C3CC3)c(Cl)c2)CCCN1c1cnc(C(N)=O)c(Nc2ccc(N3CCN(C)CC3)cc2)n1` [Example A-189, 5-((2R,3R)-3-(3-chloro-4-cyclopropylbenzamido)-2-methylpiperidin-1-yl)-3-(4-(4-methylpiperazin-1-yl)phenylamino)pyrazine-2-carboxamide], the IC50 against ITK (setting [1]) was 100 to 1000 nM; on LCK (setting [1]) it was 100 to 1000 nM; at BTK-WT (Table 13, A compounds), not above 10 nM.

On to `C=CC(=O)N1CC[C@@H](N(C)c2cnc(C(N)=O)c(Nc3ccc(C4CCN(C5CC5)CC4)cc3)n2)C1` [Example E-121, (R)-5-((1-acryloylpyrrolidin-3-yl)(methyl)amino)-3-(4-(1-cyclopropylpiperidin-4-yl)phenylamino)pyrazine-2-carboxamide], for which the IC50 against ITK (E compounds, Table 17) was not above 10 nM; on LCK (E compounds, Table 17), 10 to 100 nM; on BTK-WT (E compounds, Table 17) it was not above 10 nM.

For `C[C@@H]1[C@H](NC(=O)c2ccc(C3CC3)cc2)CCCN1c1cnc(C(N)=O)c(Nc2cnc(C3CCOCC3)nc2)n1` [Example E-144, 5-((2R,3R)-3-(4-cyclopropylbenzamido)-2-methylpiperidin-1-yl)-3-((2-(tetrahydro-2H-pyran-4-yl)pyrimidin-5-yl)amino)pyrazine-2-carboxamide], the IC50 against ITK (E compounds, Table 17) lay in the range of 100 to 1000 nM; at LCK (E compounds, Table 17) it was 100 to 1000 nM; at BTK-WT (E compounds, Table 17) it was 10 to 100 nM.

On to `C[C@@H]1[C@H](NC(=O)c2ccc(C3CC3)cc2F)CCCN1c1cnc(C(N)=O)c(Nc2nc3c(s2)CN(C)CC3)n1` [Example A-108, 5-[(2R,3R)-3-(4-cyclopropyl-2-fluorobenzamido)-2-methylpiperidin-1-yl]-3-({5-methyl-4H,5H,6H,7H-[1,3]thiazolo[5,4-c]pyridin-2-yl}amino)pyrazine-2-carboxamide], for which the IC50 was more than 10000 nM against ITK (setting [1]); more than 10000 nM at LCK (setting [1]); 100 to 1000 nM at BTK-WT (Table 13, A compounds).

Regarding `CCC(O)(CC)c1ccc(C(=O)N[C@@H]2CCCN(c3cnc(C(N)=O)c(Nc4cnn(C)c4)n3)[C@@H]2C)cc1` [Example E-151, 5-((2R,3R)-3-(4-(3-hydroxypentan-3-yl)benzamido)-2-methylpiperidin-1-yl)-3-((1-methyl-1H-pyrazol-4-yl)amino)pyrazine-2-carboxamide], the IC50 against ITK (E compounds, Table 17) is 100 to 1000 nM; on LCK (E compounds, Table 17), 100 to 1000 nM; on BTK-WT (E compounds, Table 17) it was not above 10 nM.

Regarding `C[C@@H]1[C@H](NC(=O)c2ccc(C3CC3)cc2F)CCCN1c1cnc(C(N)=O)c(Nc2ccc(N3CCN(C)C[C@@H]3C)cc2)n1` [Example A-176, 5-[(2R,3R)-3-(4-cyclopropyl-2-fluorobenzamido)-2-methylpiperidin-1-yl]-3-({4-[(2S)-2,4-dimethylpiperazin-1-yl]phenyl}amino)pyrazine-2-carboxamide], the IC50 was 100 to 1000 nM against ITK (setting [1]); 10 to 100 nM on LCK (setting [1]); not above 10 nM on BTK-WT (Table 13, A compounds).

Turning to `Cc1cc(Nc2nc(N3CC[C@H](O)[C@@H](N4CCC[C@@H](Nc5cc(Cl)cc(C(F)(F)F)c5)C4=O)C3)nnc2C(N)=O)sn1` [Example E-10, 3-((3R,3'S,4'S)-3-(3-chloro-5-(trifluoromethyl)phenylamino)-4′-hydroxy-2-oxo-1,3′-bipiperidin-1-yl)-5-(3-methylisothiazol-5-ylamino)-1,2,4-triazine-6-carboxamide], the 50% inhibitory concentration (IC50) at ITK (E compounds, Table 17) is not above 10 nM; on LCK (E compounds, Table 17), less than 10 nM; at BTK-WT (E compounds, Table 17) it was not above 10 nM.

On to `Cn1cc(Nc2nc(N3CCC4CCN(C(=O)c5ccc(C6CC6)cc5)C4C3)cnc2C(N)=O)cn1` (stereo not drawn) [Example E-141, 5-(1-(4-cyclopropylbenzoyl)octahydro-6H-pyrrolo[2,3-c]pyridin-6-yl)-3-((1-methyl-3H-pyrazol-4-yl)amino)pyrazine-2-carboxamide], for which the IC50 is 1000 to 10000 nM at ITK (E compounds, Table 17); 100 to 1000 nM at LCK (E compounds, Table 17); 100 to 1000 nM at BTK-WT (E compounds, Table 17).

`C[C@@H]1[C@H](NC(=O)c2ccc(C3CC3)cc2Cl)CCCN1c1cnc(C(N)=O)c(Nc2ccc(N3CCN(C)CC3)cc2)n1` [Example A-180, 5-[(2R,3R)-3-(2-chloro-4-cyclopropylbenzamido)-2-methylpiperidin-1-yl]-3-{[4-(4-methylpiperazin-1-yl)phenyl]amino}pyrazine-2-carboxamide]: the IC50 against ITK (setting [1]) is 100 to 1000 nM; at LCK (setting [1]), 10 to 100 nM; on BTK-WT (Table 13, A compounds), not above 10 nM.

On to `CN1CCN(c2ccc(Nc3nc(N4CCC[C@@H](n5ccc6cc(C7CC7)cc(F)c6c5=O)C4)cnc3C(N)=O)cc2)CC1` [Example A-133, 5-[(3R)-3-(6-cyclo-propyl-8-fluoro-1-oxo-1,2-dihydroisoquinolin-2-yl)piperidin-1-yl]-3-{[4-(4-methylpiperazin-1-yl)phenyl]amino}pyrazine-2-carboxamide], for which the IC50 is 100 to 1000 nM against ITK (setting [1]); 100 to 1000 nM on LCK (setting [1]); not above 10 nM on BTK-WT (Table 13, A compounds).

For `C=CC(=O)N1CC[C@@H](N(C)c2nnc(C(N)=O)c(Nc3ccc(C(C)C)cc3)n2)C1` [Example E-26, (R)-3-((1-acryloylpyrrolidin-3-yl)(methyl)amino)-5-(4-isopropylphenylamino)-1,2,4-triazine-6-carboxamide], the IC50 at ITK (E compounds, Table 17) was not above 10 nM; at LCK (E compounds, Table 17) it was 1000 to 10000 nM; on BTK-WT (E compounds, Table 17), not above 10 nM.

On to `COCCn1cc(Nc2nc(N3CCC[C@@H](NC(=O)c4ccc(C5CC5)cc4)[C@H]3C)cnc2C(N)=O)cn1` [Example A-186, 5-((2R,3R)-3-(4-cyclopropylbenzamido)-2-methylpiperidin-1-yl)-3-(1-(2-methoxylethyl)-1H-pyrazol-4-ylamino)pyrazine-2-carboxamide], for which the IC50 is 100 to 1000 nM on ITK (setting [1]); 100 to 1000 nM at LCK (setting [1]); not above 10 nM on BTK-WT (Table 13, A compounds).

With `C[C@@H]1[C@H](NC(=O)c2ccc(C3CC3)cc2F)CCCN1c1cnc(C(N)=O)c(Nc2ccc(C3(C)CCN(C4CC4)CC3)cc2)n1` [Example A-174, 5-[(2R,3R)-3-(4-cyclopropyl-2-fluorobenzamido)-2-methylpiperidin-1-yl]-3-{[4-(1-cyclopropyl-4-methylpiperidin-4-yl)phenyl]amino}pyrazine-2-carboxamide], the IC50 is 100 to 1000 nM on ITK (setting [1]); 10 to 100 nM at LCK (setting [1]); not above 10 nM at BTK-WT (Table 13, A compounds).

On to `C=CC(=O)N1CCC[C@@H](Nc2nnc(C(N)=O)c(Nc3ccc(C4CCN(C(=O)CC)CC4)cc3)n2)C1` [Example E-45, (R)-3-(1-acryloylpiperidin-3-ylamino)-5-(4-(1-propionylpiperidin-4-yl)phenylamino)-1,2,4-triazine-6-carboxamide], for which the IC50 against ITK (E compounds, Table 17) is not above 10 nM; on LCK (E compounds, Table 17), 10 to 100 nM; on BTK-WT (E compounds, Table 17) it was not above 10 nM.

Take `C=CC(=O)N1CC[C@@H](N(C)c2nnc(C(N)=O)c(Nc3cc(C)ns3)n2)C1` [Example E-12, (R)-3-((1-acryloylpyrrolidin-3-yl)(methyl)amino)-5-(3-methylisothiazol-5-ylamino)-1,2,4-triazine-6-carboxamide]: the IC50 on ITK (E compounds, Table 17) was not above 10 nM; at LCK (E compounds, Table 17), 100 to 1000 nM; on BTK-WT (E compounds, Table 17), not above 10 nM.
